From ChEMBL document CHEMBL5303304, “EUbOPEN Chemogenomics Library - IncuCyte” (2023)
Several values for one entry are separate records, joined by “and”; a condition that tells them apart may be missing. Equal entries are not always repeated.

Assays:
Type in all cases: toxicity, cell-based
HEK-293T = experiment: Incucyte cell viability with HEK293T; conditions: human, 10 µM, compound concentration 10 uM
Fibroblast = experiment: Incucyte cell viability with human fibroblast; conditions: 10 µM, compound concentration 10 uM
U2OS = experiment: Incucyte cell viability with U2OS; conditions: human, 10 µM, compound concentration 10 uM
Further: unitless GR value; below 1 slowed growth and below 0 cell loss.

| Structure (SMILES) | Growth Rate (HEK-293T; 0 h, replicate number 2) | Growth Rate (HEK-293T; 6 h, replicate number 1) | Growth Rate (HEK-293T; 6 h, replicate number 2) | Growth Rate (HEK-293T; 12 h, replicate number 1) | Growth Rate (HEK-293T; 18 h, replicate number 1) | Growth Rate (HEK-293T; 18 h, replicate number 2) | Growth Rate (HEK-293T; 24 h, replicate number 1) | Growth Rate (HEK-293T; 24 h, replicate number 2) | Growth Rate (Fibroblast; 6 h, replicate number 1) | Growth Rate (Fibroblast; 6 h, replicate number 2) | Growth Rate (Fibroblast; 18 h, replicate number 1) | Growth Rate (Fibroblast; 18 h, replicate number 2) | Growth Rate (Fibroblast; 24 h, replicate number 1) | Growth Rate (Fibroblast; 24 h, replicate number 2) | Growth Rate (U2OS; 0 h, replicate number 1) | Growth Rate (U2OS; 0 h, replicate number 2) | Growth Rate (U2OS; 6 h, replicate number 1) | Growth Rate (U2OS; 12 h, replicate number 1) | Growth Rate (U2OS; 18 h, replicate number 1) | Growth Rate (U2OS; 24 h, replicate number 1) | also measured |
| --- | --- | --- | --- | --- | --- | --- | --- | --- | --- | --- | --- | --- | --- | --- | --- | --- | --- | --- | --- | --- | --- |
| COc1cc2c(NC3CCN(C(C)C)CC3)nc(C3CCCCC3)nc2cc1OCCCN1CCCC1 | -1 | -0.49 | -0.51 | -0.43 | -0.39 | -0.38 | -0.26 | -0.39 | -0.16 | -0.65 | -0.27 | -0.46 | -0.35 | -0.46 | -0.98 | 0.19 | 0.4 | 0.2 | 0.05 | -0.01 | Growth Rate (HEK-293T; 12 h, replicate number 2): -0.45; Growth Rate (Fibroblast; 12 h, replicate number 1): -0.07; Growth Rate (Fibroblast; 12 h, replicate number 2): -0.48; Growth Rate (U2OS; 6 h, replicate number 2): 0.03; Growth Rate (U2OS; 12 h, replicate number 2): -0.13; Growth Rate (U2OS; 18 h, replicate number 2): -0.16; Growth Rate (U2OS; 24 h, replicate number 2): -0.23 |
| CC(N)C1CCC(C(=O)Nc2ccncc2)CC1 (stereo unspecified) | 0.58 |  |  |  |  |  |  |  |  |  | -0.47 |  | 0.52 |  | 0.26 | -0.73 |  |  |  |  | Growth Rate (HEK-293T; 0 h, replicate number 1): -0.35; Growth Rate (Fibroblast; 0 h, replicate number 1): -0.76 |
| COc1cc(OC)cc(-c2cc3cnc(N)nc3nc2NC(=O)NC(C)(C)C)c1 | -0.38 | 0.92 |  | 0.8 | 0.71 | 0.36 and 0.62 | 0.65 and 0.98 | 0.38 and 0.68 | -0.05 | 0.11 |  | 0.45 |  | 0.45 |  | 0.36 and 0.2 | 0.92 | 0.8 | 0.67 and 0.9 | 0.91 | Growth Rate (Fibroblast; 0 h, replicate number 2): 0.79 |
| Cc1cn(CCN2CCN(c3ccccc3-c3cc(C#N)cc(C(=O)NCCCN4CCCC4)c3)CC2)c2ccccc12 | -1 | -0.62 | -0.59 | -0.46 | -0.45 | -0.47 | -0.38 | -0.39 | -0.88 | -0.91 | -0.68 | -0.81 | -0.66 | -0.71 | -1 | -0.98 | -0.93 | -0.85 | -0.75 | -0.72 | Growth Rate (HEK-293T; 12 h, replicate number 2): -0.49; Growth Rate (Fibroblast; 12 h, replicate number 1): -0.74; Growth Rate (Fibroblast; 12 h, replicate number 2): -0.87; Growth Rate (U2OS; 6 h, replicate number 2): -0.89; Growth Rate (U2OS; 12 h, replicate number 2): -0.84; Growth Rate (U2OS; 18 h, replicate number 2): -0.77; Growth Rate (U2OS; 24 h, replicate number 2): -0.74 |
| Cc1ccc(S(=O)(=O)O)cc1.Cn1cc(-c2ccc(F)c(C(F)(F)F)c2)nc1C1CCN(c2ncnc3[nH]ncc23)CC1 | -0.63 |  |  |  |  |  |  | 0.9 | -1 |  |  |  |  |  | 0.87 | -1 |  |  |  |  | Growth Rate (HEK-293T; 0 h, replicate number 1): 0.72; Growth Rate (Fibroblast; 0 h, replicate number 1): 0.54; Growth Rate (Fibroblast; 0 h, replicate number 2): -0.97 |
